Data as given in US20220402914A1, “Tryptoline-Based Benzothiazoles and their use as Antibiotics and Antibiotic Resistance-Modifying Agents” (The Regents of the University of Colorado, a body corporate, priority 2019, published 2022).
≈ marks a conversion by molar mass, not a printed value. Where “and” joins values, the source holds several entries; their conditions need not be identical. Equal entries are not always repeated.

Experiments:
HeLa cells = assay: GI50 against HeLa cells, Cell Titer Glo viability assay; format: cell-based, human; conditions: 24 h
Method: (§1) RMA activity of the analogues was tested by assessing their abilities to sensitize MRSA to the antibiotic cefazolin (a first-generation cephalosporin). The well characterized strain MRSA ATCC BAA-44 was tested as previously described. […] The minimal inhibitory concentration (MIC), or the lowest concentration at which S. aureus is considered susceptible to an antibacterial, was determined by the standard broth microdilution method detailed in the CLSI handbook. RMA activity was compared by the ratio of MIC/MRC. The half growth inhibitory concentration (GI50) of each analogue against HeLa cells was determined as previously described. […] The luminescence of each sample was recorded in an Envision Multilabel Plate Reader (Perkin Elmer). Results of MICs and MRCs were confirmed by testing in triplicate. The GI50 assay was performed in duplicate.

MRSA ATCC BAA-44 = assay: Minimal inhibitory concentration (MIC), standard broth microdilution; format: cell-based, Staphylococcus aureus; conditions: for MIC: Staphylococcus aureus, MRSA BAA-44 strain, read-out: MIC; for concentration that inhibited the growth of MRSA BAA-44 on average (antibiotic controls): antibiotic alone; for MIC (in words): MRSA BAA-44
Method: as §1

OCC1CN(c2nc3ccc(Cl)cc3s2)Cc2[nH]c3ccc(Cl)cc3c21 (racemic) [Compound 10, (6-Chloro-2-(6-chlorobenzo[d]thiazol-2-yl)-2,3,4,9-tetrahydro-1H-pyrido[3,4-b]indol-4-yl)methanol]
GI50 (HeLa cells): 10.8 µg/mL (≈ 26.7 µM)

COCOCC1CN(c2nc3ccc(Cl)cc3s2)Cc2[nH]c3ccc(Cl)cc3c21 (racemic) [Compound 11, 6-Chloro-2-(6-chloro-4-((methoxymethoxy)methyl)-1,3,4,9-tetrahydro-2H-pyrido[3,4-b]indol-2-yl)benzo[d]thiazole]
GI50 (HeLa cells): 7.0 µg/mL (≈ 15.6 µM)

Cl.NCCSCC1CN(c2nc3ccc(Cl)cc3s2)Cc2[nH]c3ccc(Cl)cc3c21 (racemic) [Compound 12a, 2-(((6-Chloro-2-(6-chlorobenzo[d]thiazol-2-yl)-2,3,4,9-tetrahydro-1H-pyrido[3,4-b]indol-4-yl)methyl)thio)ethan-1-amine hydrochloride]
GI50 (HeLa cells): 3.8 µg/mL

NCC1CN(c2nc3ccc(Cl)cc3s2)Cc2[nH]c3ccc(Cl)cc3c21 (racemic) [Compound 12b, (6-Chloro-2-(6-chlorobenzo[d]thiazol-2-yl)-2,3,4,9-tetrahydro-1H-pyrido[3,4-b]indol-4-yl)methanamine]
GI50 (HeLa cells): 1.5 µg/mL (≈ 3.72 µM)

CN(C)CC1CN(c2nc3ccc(Cl)cc3s2)Cc2[nH]c3ccc(Cl)cc3c21 (racemic) [Compound 12c, 1-(6-Chloro-2-(6-chlorobenzo[d]thiazol-2-yl)-2,3,4,9-tetrahydro-1H-pyrido[3,4-b]indol-4-yl)-N,N-Dimethylmethanamine]
MIC (MRSA ATCC BAA-44): 2 µg/mL (≈ 4.64 µM) | GI50 (HeLa cells): 5.2 µg/mL (≈ 12.1 µM)

C[N+](C)(C)CC1CN(c2nc3ccc(Cl)cc3s2)Cc2[nH]c3ccc(Cl)cc3c21.[I-] (racemic) [Compound 12d, 1-(6-Chloro-2-(6-chlorobenzo[d]thiazol-2-yl)-2,3,4,9-tetrahydro-1H-pyrido[3,4-b]indol-4-yl)-N,N,N-trimethylmethanaminium iodide]
MIC (MRSA ATCC BAA-44): 8 µg/mL

NCCNCC1CN(c2nc3ccc(Cl)cc3s2)Cc2[nH]c3ccc(Cl)cc3c21 (racemic) [Compound 12e, N1-((6-chloro-2-(6-chlorobenzo[d]thiazol-2-yl)-2,3,4,9-tetrahydro-1H-pyrido[3,4-b]indol-4-yl)methyl)ethane-1,2-diamine]
GI50 (HeLa cells): 2.4 µg/mL (≈ 5.38 µM)

N=CNCC1CN(c2nc3ccc(Cl)cc3s2)Cc2[nH]c3ccc(Cl)cc3c21 (racemic) [Compound 12f, N-((6-chloro-2-(6-chlorobenzo[d]thiazol-2-yl)-2,3,4,9-tetrahydro-1H-pyrido[3,4-b]indol-4-yl)methyl)formimidamide]
MIC (MRSA ATCC BAA-44): 4 µg/mL (≈ 9.29 µM) | GI50 (HeLa cells): 3.8 µg/mL (≈ 8.83 µM)

Cc1nnc(SCC2=C(C(=O)O)N3C(=O)[C@@H](NC(=O)Cn4cnnn4)[C@H]3SC2)s1 [Cefazolin, reference compound]
concentration that inhibited the growth of MRSA BAA-44 on average (antibiotic controls) (MRSA ATCC BAA-44): 128 µg/mL and 256 µg/mL

CO/N=C(\C(=O)N[C@@H]1C(=O)N2C(C(=O)O)=C(COC(N)=O)CS[C@H]12)c1ccco1 [Cefuroxime, reference compound]
concentration that inhibited the growth of MRSA BAA-44 on average (antibiotic controls) (MRSA ATCC BAA-44): 128 µg/mL and 256 µg/mL

Oc1cc(Cl)c2nc(N3CCc4c([nH]c5ccc(Cl)cc45)C3)sc2c1 [Compound 4aa, 4-Chloro-2-(6-chloro-1,3,4,9-tetrahydro-2H-pyrido[3,4-b]indol-2-yl)-1,3-benzothiazol-6-ol]
MIC (MRSA ATCC BAA-44): > 32 µg/mL | GI50 (HeLa cells): 5.5 µg/mL (≈ 14.1 µM)

NCCOc1cc(Cl)c2nc(N3CCc4c([nH]c5ccc(Cl)cc45)C3)sc2c1 [Compound 4ab, 2-((4-Chloro-2-(6-chloro-1,3,4,9-tetrahydro-2H-pyrido[3,4-b]indol-2-yl)benzo[d]thiazol-6-yl)oxy)ethan-1-amine]
MIC (MRSA ATCC BAA-44): 8 µg/mL (≈ 18.5 µM)

Clc1ccc2[nH]c3c(c2c1)CCN(c1nc2c(Cl)cc(Br)cc2s1)C3 [Compound 4ac, 2-(6-Bromo-4-chloro-1,3-benzothiazol-2-yl)-6-chloro-2,3,4,9-tetrahydro-1H-pyrido[3,4-b]indole]
MIC (MRSA ATCC BAA-44): > 32 µg/mL | GI50 (HeLa cells): 22 µg/mL (≈ 48.5 µM)

Cl.NCC(=O)Nc1cc(Cl)c2nc(N3CCc4c([nH]c5ccc(Cl)cc45)C3)sc2c1 [Compound 4ae, 2-amino-N-(4-chloro-2-(6-chloro-1,3,4,9-tetrahydro-2H-pyrido[3,4-b]indol-2-yl)benzo[d]thiazol-6-yl)acetamide hydrochloride]
MIC (in words) (MRSA ATCC BAA-44): excellent MICs | GI50 (HeLa cells): 14.8 µg/mL

FC(F)(F)c1cc(Br)cc2sc(N3CCc4c([nH]c5ccc(Cl)cc45)C3)nc12 [Compound 4ag, 2-[6-Bromo-4-(trifluoromethyl)-1,3-benzothiazol-2-yl]-6-chloro-2,3,4,9-tetrahydro-1H-pyrido[3,4-b]indole]
MIC (MRSA ATCC BAA-44): 4 µg/mL (≈ 8.22 µM) | GI50 (HeLa cells): 5.9 µg/mL (≈ 12.1 µM)

Cl.Nc1cc(C(F)(F)F)c2nc(N3CCc4c([nH]c5ccc(Cl)cc45)C3)sc2c1 [Compound 4ah, 2-(6-Chloro-1,3,4,9-tetrahydro-2H-pyrido[3,4-b]indol-2-yl)-4-(trifluoromethyl)-1,3-benzothiazol-6-aminium chloride]
MIC (MRSA ATCC BAA-44): 16 µg/mL | GI50 (HeLa cells): 32 µg/mL

Cl.NCCNc1cc(C(F)(F)F)c2nc(N3CCc4c([nH]c5ccc(Cl)cc45)C3)sc2c1 [Compound 4aj, N1-(2-(6-chloro-1,3,4,9-tetrahydro-2H-pyrido[3,4-b]indol-2-yl)-4-(trifluoromethyl)benzo[d]thiazol-6-yl)ethane-1,2-diamine hydrochloride]
MIC (in words) (MRSA ATCC BAA-44): excellent MICs | GI50 (HeLa cells): 7.4 µg/mL

Clc1ccc2nc(N3CCc4c([nH]c5cccc(Cl)c45)C3)sc2c1 [Compound 4f, 5-Chloro-2-(6-chloro-1,3-benzothiazol-2-yl)-2,3,4,9-tetrahydro-1H-pyrido[3,4-b]indole]
MIC (MRSA ATCC BAA-44): > 16 µg/mL

Clc1ccc2nc(N3CCc4c([nH]c5c(Cl)cccc45)C3)sc2c1 [Compound 4h, 8-Chloro-2-(6-chloro-1,3-benzothiazol-2-yl)-2,3,4,9-tetrahydro-1H-pyrido[3,4-b]indole]
MIC (MRSA ATCC BAA-44): > 16 µg/mL

Clc1ccc2nc(N3CCc4c([nH]c5ccc(Br)cc45)C3)sc2c1 [Compound 4j, 6-Bromo-2-(6-chloro-1,3-benzothiazol-2-yl)-2,3,4,9-tetrahydro-1H-pyrido[3,4-b]indole]
MIC (MRSA ATCC BAA-44): 4 µg/mL (≈ 9.55 µM)

Clc1cc(Cl)c2nc(N3CCc4c([nH]c5ccc(Cl)cc45)C3)sc2c1 [Compound 4x, 6-Chloro-2-(4,6-dichloro-1,3-benzothiazol-2-yl)-2,3,4,9-tetrahydro-1H-pyrido[3,4-b]indole]
MIC (in words) (MRSA ATCC BAA-44): excellent MICs | MIC (MRSA ATCC BAA-44): 2 µg/mL (≈ 4.89 µM) | GI50 (HeLa cells): 16.1 µg/mL (≈ 39.4 µM)

Clc1ccc2[nH]c3c(c2c1)CCN(c1nc2c(Cl)c(Cl)c(Cl)cc2s1)C3 [Compound 4y, 6-Chloro-2-(4,5,6-trichloro-1,3-benzothiazol-2-yl)-2,3,4,9-tetrahydro-1H-pyrido[3,4-b]indole]
MIC (in words) (MRSA ATCC BAA-44): excellent MICs | MIC (MRSA ATCC BAA-44): 2 µg/mL (≈ 4.51 µM) | GI50 (HeLa cells): 11.7 µg/mL (≈ 26.4 µM)

S=C(Nc1ccc(Cl)cc1)N1CCc2c([nH]c3ccc(Cl)cc23)C1 [Compound 5a, 6-Chloro-N-(4-chlorophenyl)-1,3,4,9-tetrahydro-2H-pyrido[3,4-b]indole-2-carbothioamide]
MIC (MRSA ATCC BAA-44): 4 µg/mL (≈ 10.6 µM)

FC(F)(F)c1cccc(NC(=S)N2CCc3c([nH]c4ccc(Cl)cc34)C2)c1 [Compound 5c, 6-Chloro-N-[3-(trifluoromethyl)phenyl]-1,3,4,9-tetrahydro-2H-pyrido[3,4-b]indole-2-carbothioamide]
MIC (MRSA ATCC BAA-44): 2 µg/mL (≈ 4.88 µM)
